Structures can show the parent of a compound that is named as a salt.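 Compound exposure: 48 hours, 5 concentrations, 96-well plates. The concentration for 50% growth inhibition is given as GI50.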 Activity calls are given as the source filed them. Rule as the data show it: active = GI50 up to about 1.1 µM and inactive = higher.
Columns and labels:
Assay in all cases: NCI tumour cell line growth inhibition, 48 h
DU-145 = system: DU-145
HL-60 = system: HL-60
HOP-62 = system: HOP-62
Hs-578T = system: Hs-578T
IGROV-1 = system: IGROV-1
M14 = system: M14
MDA-MB-435 = system: MDA-MB-435
MDA-N = system: MDA-N
MOLT-4 = system: MOLT-4
NCI/ADR-RES = system: NCI/ADR-RES
OVCAR-3 = system: OVCAR-3
OVCAR-4 = system: OVCAR-4
OVCAR-5 = system: OVCAR-5
SR = system: SR
UO-31 = system: UO-31
CCRF-CEM = system: CCRF-CEM

Structure (SMILES) | GI50 (DU-145) | GI50 (HL-60) | GI50 (HOP-62) | GI50 (Hs-578T) | GI50 (IGROV-1) | GI50 (M14) | GI50 (MDA-MB-435) | GI50 (MDA-N) | GI50 (MOLT-4) | GI50 (NCI/ADR-RES) | GI50 (OVCAR-3) | GI50 (OVCAR-4) | GI50 (OVCAR-5) | GI50 (SR) | GI50 (UO-31) | GI50 (CCRF-CEM)
COc1cc(S(=O)(=O)Nc2nc(-c3ccc(N4C(=O)C(CC(=O)O)SC4c4cccs4)cc3)cs2)ccc1Cl (stereo not given) | 43.5 µM (inactive) | 31 µM (inactive) | 54 µM (inactive) | 46 µM (inactive) | 27.1 µM (inactive) | > 100 µM (inactive) | 40 µM (inactive) | 43.3 µM (inactive) | 29 µM (inactive) | 29.3 µM (inactive) | 36.2 µM (inactive) | 26.7 µM (inactive) | > 100 µM (inactive) | 44.9 µM (inactive) | 19.9 µM (inactive) | –
COc1cc(/C=C/C(=O)OCCc2ccccc2)ccc1O | 16.6 µM (inactive) | 0.352 µM (active) | 16.3 µM (inactive) | 25.6 µM (inactive) | 14.1 µM (inactive) | 15 µM (inactive) | 13.4 µM (inactive) | 19.1 µM (inactive) | 14.5 µM (inactive) | 23.7 µM (inactive) | 18.1 µM (inactive) | 13 µM (inactive) | 18.2 µM (inactive) | 24.7 µM (inactive) | 13.9 µM (inactive) | –
CC(=O)C(=N\Nc1ccc(Cl)cc1)/C(C)=N/c1ccc(C)cc1 | 30.8 µM (inactive) | – | > 10 µM (inactive) | 44.4 µM (inactive) | 32.7 µM (inactive) | 22.1 µM (inactive) | 30.4 µM (inactive) | 31.9 µM (inactive) | 16.7 µM (inactive) | 25.6 µM (inactive) | 24.6 µM (inactive) | > 100 µM (inactive) | 34 µM (inactive) | > 100 µM (inactive) | 30.1 µM (inactive) | 11.2 µM (inactive)
Oc1ccc(C(O)C2CCCCN2)cc1O (stereo not given) [RIMITEROL HYDROBROMIDE] | > 100 µM (inactive) | – | > 100 µM (inactive) | > 100 µM (inactive) | > 100 µM (inactive) | > 100 µM (inactive) | > 100 µM (inactive) | > 100 µM (inactive) | – | > 100 µM (inactive) | > 100 µM (inactive) | > 100 µM (inactive) | > 100 µM (inactive) | 71 µM (inactive) | 32.1 µM (inactive) | –
NN(CC(=O)O)CC(=O)O | > 100 µM (inactive) | > 100 µM (inactive) | > 100 µM (inactive) | > 100 µM (inactive) | > 100 µM (inactive) | > 100 µM (inactive) | > 100 µM (inactive) | > 100 µM (inactive) | > 100 µM (inactive) | > 100 µM (inactive) | > 100 µM (inactive) | > 100 µM (inactive) | > 100 µM (inactive) | – | > 100 µM (inactive) | > 100 µM (inactive)
O=C1CNCCCN2CCN(CCCNCC(=O)Nc3ccc(cc3)S(=O)(=O)c3ccc(cc3)NC(=O)CNCCCN3CCN(CCCNCC(=O)Nc4ccc(cc4)S(=O)(=O)c4ccc(cc4)N1)CC3)CC2 | 41.4 µM (inactive) | 0.433 µM (active) | 25.1 µM (inactive) | > 45.4 µM (inactive) | 21.2 µM (inactive) | 46 µM (inactive) | 20.9 µM (inactive) | 19.3 µM (inactive) | 19.4 µM (inactive) | 40.3 µM (inactive) | 41.7 µM (inactive) | > 47.9 µM (inactive) | 31.4 µM (inactive) | – | 61 µM (inactive) | 1.57 µM (inactive)
CCOC(=O)c1nnsc1NN | > 100 µM (inactive) | 10.5 µM (inactive) | > 100 µM (inactive) | > 100 µM (inactive) | > 100 µM (inactive) | 90.6 µM (inactive) | > 100 µM (inactive) | 72.6 µM (inactive) | 34 µM (inactive) | > 100 µM (inactive) | > 100 µM (inactive) | > 100 µM (inactive) | > 100 µM (inactive) | – | > 100 µM (inactive) | 18.8 µM (inactive)
COc1cccc(N(CN2CC=CC2=O)C(C)=O)c1 | > 100 µM (inactive) | > 100 µM (inactive) | > 100 µM (inactive) | > 100 µM (inactive) | > 100 µM (inactive) | > 100 µM (inactive) | > 100 µM (inactive) | > 100 µM (inactive) | > 100 µM (inactive) | > 100 µM (inactive) | > 100 µM (inactive) | > 100 µM (inactive) | > 100 µM (inactive) | – | > 100 µM (inactive) | > 100 µM (inactive)
COc1ccccc1/C=C\c1cnnc2ccccc12 | > 10 µM (inactive) | > 10 µM (inactive) | > 10 µM (inactive) | > 10 µM (inactive) | 8.63 µM (inactive) | > 10 µM (inactive) | 3.49 µM (inactive) | 3.33 µM (inactive) | 6.24 µM (inactive) | > 10 µM (inactive) | > 10 µM (inactive) | > 10 µM (inactive) | > 10 µM (inactive) | – | – | 6.59 µM (inactive)
CC(=O)OCC1OC(Sc2nc(-c3ccccc3)c(C#N)c(=O)n2C2OC(COC(C)=O)C(OC(C)=O)C(OC(C)=O)C2OC(C)=O)C(OC(C)=O)C(OC(C)=O)C1OC(C)=O (stereo not given) | > 100 µM (inactive) | – | > 100 µM (inactive) | > 100 µM (inactive) | > 100 µM (inactive) | > 100 µM (inactive) | > 100 µM (inactive) | > 100 µM (inactive) | > 100 µM (inactive) | > 100 µM (inactive) | > 100 µM (inactive) | – | > 100 µM (inactive) | > 100 µM (inactive) | > 100 µM (inactive) | –
CNC(=O)CCCN(C)C(=O)CCCCC(=O)N(C)C | > 58.5 µM (inactive) | 26.7 µM (inactive) | > 100 µM (inactive) | > 56.9 µM (inactive) | > 58.7 µM (inactive) | > 100 µM (inactive) | > 56 µM (inactive) | > 60.8 µM (inactive) | 41.6 µM (inactive) | > 59 µM (inactive) | > 92.3 µM (inactive) | > 100 µM (inactive) | > 100 µM (inactive) | – | > 61 µM (inactive) | 40.5 µM (inactive)
CC(=O)O[C@H]1C[C@H]2C(=S)Nc3ccccc3C(=S)N2C1 | > 100 µM (inactive) | – | > 100 µM (inactive) | > 100 µM (inactive) | > 100 µM (inactive) | > 100 µM (inactive) | > 100 µM (inactive) | > 100 µM (inactive) | > 100 µM (inactive) | > 100 µM (inactive) | > 100 µM (inactive) | > 100 µM (inactive) | > 100 µM (inactive) | > 100 µM (inactive) | > 100 µM (inactive) | > 100 µM (inactive)
COc1cc2c(cc1-c1coc3cc(O)ccc3c1=O)OCO2 [CUNEATIN] | 39.6 µM (inactive) | > 100 µM (inactive) | 16.4 µM (inactive) | 22.2 µM (inactive) | 22.9 µM (inactive) | 71 µM (inactive) | > 100 µM (inactive) | 48.9 µM (inactive) | > 100 µM (inactive) | 21.8 µM (inactive) | 32.6 µM (inactive) | 19.8 µM (inactive) | 40.2 µM (inactive) | – | 22.1 µM (inactive) | > 100 µM (inactive)
CCSCCC(N)C(=O)O (stereo not given) | > 100 µM (inactive) | > 100 µM (inactive) | > 100 µM (inactive) | > 100 µM (inactive) | > 100 µM (inactive) | > 100 µM (inactive) | > 100 µM (inactive) | > 100 µM (inactive) | > 100 µM (inactive) | > 100 µM (inactive) | > 100 µM (inactive) | > 100 µM (inactive) | > 100 µM (inactive) | > 100 µM (inactive) | > 100 µM (inactive) | –
NCCN1C(=O)c2ccccc2C1(O)c1ccc(Cl)cc1 (stereo not given) | 33.9 µM (inactive) | 52.8 µM (inactive) | 24.2 µM (inactive) | 16.2 µM (inactive) | 19 µM (inactive) | 19 µM (inactive) | 15.3 µM (inactive) | 18.2 µM (inactive) | 17.3 µM (inactive) | 37.4 µM (inactive) | 23.6 µM (inactive) | 28.5 µM (inactive) | 19.7 µM (inactive) | 17.9 µM (inactive) | – | 25.4 µM (inactive)
COc1ccc2[nH]c3c([N+](=O)[O-])ccc(Cl)c3c(=O)c2c1 | 47.3 µM (inactive) | 3.02 µM (inactive) | 26.7 µM (inactive) | 30.3 µM (inactive) | 13.1 µM (inactive) | 15.8 µM (inactive) | 21 µM (inactive) | 21.2 µM (inactive) | 3.52 µM (inactive) | 25.6 µM (inactive) | 16.8 µM (inactive) | 15.4 µM (inactive) | > 43 µM (inactive) | – | 17.3 µM (inactive) | 2.12 µM (inactive)
COc1ccccc1NC(=S)N/N=C1\C(=O)Nc2ccccc21 | 0.762 µM (active) | – | > 100 µM (inactive) | > 100 µM (inactive) | > 100 µM (inactive) | > 100 µM (inactive) | > 100 µM (inactive) | > 100 µM (inactive) | > 100 µM (inactive) | > 100 µM (inactive) | 57.7 µM (inactive) | > 100 µM (inactive) | > 100 µM (inactive) | > 100 µM (inactive) | > 100 µM (inactive) | > 100 µM (inactive)
Cc1cc(-c2nc3cc(F)ccc3s2)ccc1NC(=O)[C@@H](N)CCCCN | 13.9 µM (inactive) | 2.02 µM (inactive) | 3.13 µM (inactive) | 3.08 µM (inactive) | < 0.0131 µM (active) | 2.14 µM (inactive) | 1.79 µM (inactive) | 1.77 µM (inactive) | 1.3 µM (inactive) | 15.2 µM (inactive) | 6.11 µM (inactive) | 2.12 µM (inactive) | 0.119 µM (active) | 0.802 µM (active) | 3.29 µM (inactive) | –

From ChEMBL document CHEMBL1201862, “PubChem BioAssay data set” (2004)
